Test system: 188146-221-R-J1-PDC complex spheroid viability
Test: Anticancer human tumor 188146-221-R-J1-PDC patient-derived colon adenocarcinoma cell line growth inhibition [POLQ]
Details: for IC50: curve of first compound; for viability, T/C: stronger effect = lower value
Outline: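 PDC + HUVEC + MSC complex spheroids; POLQ inhibitors ± partner drugs; top conc. at/near clinical Cmax, else 10 microM (SN-38 1 microM), half-log dilutions; 37 degrees C, 5% CO2.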

[1] = second compound 0.0316 µM, first compound 0.0316 µM
[2] = second compound 0.0316 µM, first compound 0.1 µM
[3] = second compound 0.0316 µM, first compound 0.316 µM
[4] = second compound 0.0316 µM, first compound 1 µM
[5] = second compound 0.1 µM, first compound 0.0316 µM
[6] = second compound 0.1 µM, first compound 0.1 µM
[7] = second compound 0.1 µM, first compound 0.316 µM
[8] = second compound 0.1 µM, first compound 1 µM
[9] = second compound 0.316 µM, first compound 0.0316 µM
[10] = second compound 0.316 µM, first compound 0.1 µM
[11] = second compound 0.316 µM, first compound 0.316 µM
[12] = second compound 0.316 µM, first compound 1 µM
[13] = second compound 1 µM, first compound 0.0316 µM
[14] = second compound 1 µM, first compound 0.1 µM
[15] = second compound 1 µM, first compound 0.316 µM
[16] = second compound 1 µM, first compound 1 µM
[17] = second compound 3.16 µM, first compound 0.0316 µM
[18] = second compound 3.16 µM, first compound 0.1 µM
[19] = second compound 3.16 µM, first compound 0.316 µM
[20] = second compound 3.16 µM, first compound 1 µM
[21] = second compound 10 µM, first compound 0.0316 µM
[22] = second compound 10 µM, first compound 0.1 µM
[23] = second compound 10 µM, first compound 0.316 µM
[24] = second compound 10 µM, first compound 1 µM
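Further: spheroids exposed to compounds for seven days.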
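Wherever viability, T/C is given: 100% = DMSO vehicle control viability.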

CCCS(=O)(=O)Nc1ccc(F)c(C(=O)c2c[nH]c3ncc(-c4ccc(Cl)cc4)cc23)c1F + Cc1cccc(N(C)C(=O)C2C(O)CCN2c2nc(C)cc(C(F)(F)F)c2C#N)c1
IC50 (second compound 0.0316 µM): 9.75 µM | IC50 (second compound 0.1 µM): 6.82 µM | IC50 (second compound 0.316 µM): 6.53 µM | IC50 (second compound 1 µM): 6.44 µM | IC50 (second compound 3.16 µM): 7.14 µM | IC50 (second compound 10 µM): 5.88 µM | viability, T/C [1]: 117% | viability, T/C [2]: 96.5% | viability, T/C [3]: 102% | viability, T/C [4]: 87.1% | viability, T/C (second compound 0.0316 µM, first compound 3.16 µM): 78.8% | viability, T/C (second compound 0.0316 µM, first compound 10 µM): 47.3% | viability, T/C [5]: 113% | viability, T/C [6]: 97.3% | viability, T/C [7]: 106% | viability, T/C [8]: 91% | viability, T/C (second compound 0.1 µM, first compound 3.16 µM): 85.8% | viability, T/C (second compound 0.1 µM, first compound 10 µM): 33.4% | viability, T/C [9]: 116% | viability, T/C [10]: 112% | viability, T/C [11]: 99.2% | viability, T/C [12]: 88.3% | viability, T/C (second compound 0.316 µM, first compound 3.16 µM): 90.9% | viability, T/C (second compound 0.316 µM, first compound 10 µM): 29.2% | viability, T/C [13]: 93.4% | viability, T/C [14]: 98.1% | viability, T/C [15]: 101% | viability, T/C [16]: 90.6% | viability, T/C (second compound 1 µM, first compound 3.16 µM): 81.5% | viability, T/C (second compound 1 µM, first compound 10 µM): 30.7% | viability, T/C [17]: 107% | viability, T/C [18]: 104% | viability, T/C [19]: 104% | viability, T/C [20]: 77.4% | viability, T/C (second compound 3.16 µM, first compound 3.16 µM): 96.4% | viability, T/C (second compound 3.16 µM, first compound 10 µM): 31% | viability, T/C [21]: 106% | viability, T/C [22]: 97.7% | viability, T/C [23]: 105% | viability, T/C [24]: 85.1% | viability, T/C (second compound 10 µM, first compound 3.16 µM): 92.6% | viability, T/C (second compound 10 µM, first compound 10 µM): 13.4%

COc1cccc(OCCCN)c1-c1cc(Nc2cnc(C#N)cn2)n[nH]1 + Cc1cccc(N(C)C(=O)C2C(O)CCN2c2nc(C)cc(C(F)(F)F)c2C#N)c1
IC50 (second compound 0.0316 µM): 0.0555 µM | IC50 (second compound 0.1 µM): 0.0609 µM | IC50 (second compound 0.316 µM): 0.0515 µM | IC50 (second compound 1 µM): 0.0412 µM | IC50 (second compound 3.16 µM): 0.0473 µM | IC50 (second compound 10 µM): 0.0222 µM | viability, T/C (second compound 0.0316 µM, first compound 0.00316 µM): 100% | viability, T/C (second compound 0.0316 µM, first compound 0.01 µM): 103% | viability, T/C [1]: 61.5% | viability, T/C [2]: 36.1% | viability, T/C [3]: 18.5% | viability, T/C [4]: 12.1% | viability, T/C (second compound 0.1 µM, first compound 0.00316 µM): 99.9% | viability, T/C (second compound 0.1 µM, first compound 0.01 µM): 90% | viability, T/C [5]: 75.8% | viability, T/C [6]: 30.7% | viability, T/C [7]: 15.9% | viability, T/C [8]: 14.2% | viability, T/C (second compound 0.316 µM, first compound 0.00316 µM): 105% | viability, T/C (second compound 0.316 µM, first compound 0.01 µM): 89.7% | viability, T/C [9]: 66% | viability, T/C [10]: 29.6% | viability, T/C [11]: 17.4% | viability, T/C [12]: 13.6% | viability, T/C (second compound 1 µM, first compound 0.00316 µM): 113% | viability, T/C (second compound 1 µM, first compound 0.01 µM): 104% | viability, T/C [13]: 54.4% | viability, T/C [14]: 29% | viability, T/C [15]: 17.1% | viability, T/C [16]: 12.6% | viability, T/C (second compound 3.16 µM, first compound 0.00316 µM): 91.7% | viability, T/C (second compound 3.16 µM, first compound 0.01 µM): 82.1% | viability, T/C [17]: 62.8% | viability, T/C [18]: 27.7% | viability, T/C [19]: 15.6% | viability, T/C [20]: 14% | viability, T/C (second compound 10 µM, first compound 0.00316 µM): 96% | viability, T/C (second compound 10 µM, first compound 0.01 µM): 75.3% | viability, T/C [21]: 37.3% | viability, T/C [22]: 24.4% | viability, T/C [23]: 16.9% | viability, T/C [24]: 14.6%

Source: PubChem BioAssay AID1963851 (Molecular Pharmacology Branch, DTP, NCI, 2024)
